Source: US20240083897A1, “GCN2 MODULATING COMPOUNDS AND USES THEREOF” (HiberCell, Inc., priority 2021, published 2024)
pIC50: −log10 of the molar value. Read-outs that look alike come from different tables or passages of the source.

Target: GCN2 (Homo sapiens (Human), UniProt Q9P2K8)
Test: TR-FRET biochemical assay for inhibition of GCN2
[1] = GCN2 2 nM, 100 nM GFP-eIF2a, 150 μM ATP, TR-FRET

Sequence of GCN2 (Q9P2K8 whole entry): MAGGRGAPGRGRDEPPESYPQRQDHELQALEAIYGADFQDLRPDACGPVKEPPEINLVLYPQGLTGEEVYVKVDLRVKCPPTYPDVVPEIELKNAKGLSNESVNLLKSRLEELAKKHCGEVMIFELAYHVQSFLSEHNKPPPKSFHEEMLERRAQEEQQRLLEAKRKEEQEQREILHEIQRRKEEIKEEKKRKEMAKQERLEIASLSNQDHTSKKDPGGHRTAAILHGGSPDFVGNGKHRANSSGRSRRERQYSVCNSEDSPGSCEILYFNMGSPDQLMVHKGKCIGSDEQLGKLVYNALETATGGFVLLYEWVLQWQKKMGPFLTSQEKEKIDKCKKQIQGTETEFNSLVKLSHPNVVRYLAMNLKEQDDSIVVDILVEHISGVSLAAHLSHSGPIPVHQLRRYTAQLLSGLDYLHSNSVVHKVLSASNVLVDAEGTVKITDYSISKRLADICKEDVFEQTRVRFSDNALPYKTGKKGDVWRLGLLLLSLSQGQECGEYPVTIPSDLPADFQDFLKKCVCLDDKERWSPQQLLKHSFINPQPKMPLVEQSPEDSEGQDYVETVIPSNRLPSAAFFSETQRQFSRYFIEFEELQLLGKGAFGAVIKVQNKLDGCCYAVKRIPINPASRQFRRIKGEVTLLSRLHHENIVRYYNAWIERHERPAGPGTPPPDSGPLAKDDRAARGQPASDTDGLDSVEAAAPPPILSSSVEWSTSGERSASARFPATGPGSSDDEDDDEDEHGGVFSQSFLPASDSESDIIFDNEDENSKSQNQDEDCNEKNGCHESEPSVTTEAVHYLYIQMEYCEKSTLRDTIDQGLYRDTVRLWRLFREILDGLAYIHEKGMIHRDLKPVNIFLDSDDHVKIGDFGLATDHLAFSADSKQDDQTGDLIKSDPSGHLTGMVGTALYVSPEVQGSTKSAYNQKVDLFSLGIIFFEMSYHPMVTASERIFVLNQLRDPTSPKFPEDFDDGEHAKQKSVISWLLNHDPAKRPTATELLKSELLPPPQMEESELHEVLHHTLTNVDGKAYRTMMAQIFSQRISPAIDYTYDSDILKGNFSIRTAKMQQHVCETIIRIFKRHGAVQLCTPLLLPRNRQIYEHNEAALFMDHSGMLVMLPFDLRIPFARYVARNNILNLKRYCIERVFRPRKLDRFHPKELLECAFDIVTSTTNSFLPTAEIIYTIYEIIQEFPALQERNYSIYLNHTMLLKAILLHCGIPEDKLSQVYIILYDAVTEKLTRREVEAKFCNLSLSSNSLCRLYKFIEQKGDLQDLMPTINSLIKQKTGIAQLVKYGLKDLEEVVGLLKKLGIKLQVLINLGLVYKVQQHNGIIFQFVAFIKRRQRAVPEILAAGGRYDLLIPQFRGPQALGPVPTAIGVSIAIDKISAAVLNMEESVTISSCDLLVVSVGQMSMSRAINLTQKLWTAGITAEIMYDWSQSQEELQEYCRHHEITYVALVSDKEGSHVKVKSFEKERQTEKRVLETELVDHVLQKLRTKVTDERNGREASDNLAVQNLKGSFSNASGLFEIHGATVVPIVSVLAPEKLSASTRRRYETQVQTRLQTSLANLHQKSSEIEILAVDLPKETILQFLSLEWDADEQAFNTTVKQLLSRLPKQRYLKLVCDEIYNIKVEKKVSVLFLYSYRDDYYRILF

SMILES | pIC50 [1] | pIC50
Cc1ncc(Cl)cc1S(=O)(=O)Nc1ccc(F)c(-c2cn3cnc(-c4nc5ccccc5[nH]4)c3cn2)c1F [Compound 113, N-[3-[1-(1H-1,3-benzodiazol-2-yl)imidazo[1,5-a]pyrazin-6-yl]-2,4-difluorophenyl]-5-chloro-2-methylpyridine-3-sulfonamide] | > 7.30 | –
COc1ncc(C#N)cc1S(=O)(=O)Nc1ccc(F)c(-c2ccc3c(-c4ccno4)ncn3c2)c1F [Compound 119, 5-cyano-N-[2,4-difluoro-3-[1-(1,2-oxazol-5-yl)imidazo[1,5-a]pyridin-6-yl]phenyl]-2-methoxypyridine-3-sulfonamide] | > 7.30 | –
CNC(=O)c1ncn2cc(-c3c(F)ccc(NS(=O)(=O)c4cc(C#N)cc(C(F)(F)F)c4)c3F)ccc12 [Compound 23, 6-[3-[3-cyano-5-(trifluoromethyl)benzenesulfonamido]-2,6-difluorophenyl]-N-methylimidazo[1,5-a]pyridine-1-carboxamide] | – | 6.30 to 7.30
COc1ncc(F)cc1S(=O)(=O)Nc1ccc(F)c(-c2ccn3c(-c4ncc[nH]4)ncc3c2F)c1F [Compound 47, N-[2,4-difluoro-3-[8-fluoro-3-(1H-imidazol-2-yl)imidazo[1,5-a]pyridin-7-yl]phenyl]-5-fluoro-2-methoxypyridine-3-sulfonamide] | > 7.30 | –
COc1ncc(F)cc1S(=O)(=O)Nc1ccc(F)c(-c2ccc3c(-c4nc(Cl)c[nH]4)ncn3c2F)c1F [Compound 115, N-[3-[1-(4-chloro-1H-imidazol-2-yl)-5-fluoroimidazo[1,5-a]pyridin-6-yl]-2,4-difluorophenyl]-5-fluoro-2-methoxypyridine-3-sulfonamide] | > 7.30 | –
COc1ncc(C#N)cc1S(=O)(=O)Nc1ccc(F)c([C@@H]2CCc3c(-c4ncc[nH]4)ncn3C2)c1F [Compound 82-2, 5-cyano-N-[2,4-difluoro-3-[(6S)-1-(1H-imidazol-2-yl)-5H,6H,7H,8H-imidazo[1,5-a]pyridin-6-yl]phenyl]-2-methoxypyridine-3-sulfonamide] | – | 6.30 to 7.30
COc1ncc(Cl)cc1S(=O)(=O)Nc1ccc(F)c(-c2cn3cnc(-c4nc5ccccc5[nH]4)c3cn2)c1F [Compound 110, N-[3-[1-(1H-1,3-benzodiazol-2-yl)imidazo[1,5-a]pyrazin-6-yl]-2,4-difluorophenyl]-5-chloro-2-methoxypyridine-3-sulfonamide] | > 7.30 | –
Cc1ncc(Cl)cc1S(=O)(=O)Nc1ccc(F)c(-c2ccc3c(-c4ncc[nH]4)ncn3c2)c1F [Compound 25, 5-chloro-N-[2,4-difluoro-3-[1-(1H-imidazol-2-yl)imidazo[1,5-a]pyridin-6-yl]phenyl]-2-methylpyridine-3-sulfonamide] | > 7.30 | –
CNC(=O)c1ncn2c1CC[C@H](c1c(F)ccc(NS(=O)(=O)c3cc(Cl)cnc3OC)c1F)[C@@H]2C [Compound 96-1, (5S,6R)-6-[3-(5-chloro-2-methoxypyridine-3-sulfonamido)-2,6-difluorophenyl]-N,5-dimethyl-5H,6H,7H,8H-imidazo[1,5-a]pyridine-1-carboxamide] | – | 6.30 to 7.30
COc1ncc(F)cc1S(=O)(=O)Nc1ccc(F)c(-c2ccc3c(-c4ncc[nH]4)ncn3c2)c1F [Compound 18, N-[2,4-difluoro-3-[1-(1H-imidazol-2-yl)imidazo[1,5-a]pyridin-6-yl]phenyl]-5-fluoro-2-methoxypyridine-3-sulfonamide] | > 7.30 | –
Cc1ncc(Cl)cc1S(=O)(=O)Nc1ccc(F)c(-c2cn3cnc(-c4ncc[nH]4)c3cn2)c1F [Compound 83, 5-chloro-N-[2,4-difluoro-3-[1-(1H-imidazol-2-yl)imidazo[1,5-a]pyrazin-6-yl]phenyl]-2-methylpyridine-3-sulfonamide] | > 7.30 | –
COc1ncc(F)cc1S(=O)(=O)Nc1ccc(F)c(-c2cn3cnc(-c4nc(-c5ccccc5)c[nH]4)c3cn2)c1F [Compound 156, N-[2,4-difluoro-3-[1-(4-phenyl-1H-imidazol-2-yl)imidazo[1,5-a]pyrazin-6-yl]phenyl]-5-fluoro-2-methoxypyridine-3-sulfonamide] | > 7.30 | –
CNC(=O)c1ncn2cc(-c3c(F)ccc(NS(=O)(=O)c4cc(Cl)cnc4OC)c3C)ccc12 [Compound 122, 6-[3-(5-chloro-2-methoxypyridine-3-sulfonamido)-6-fluoro-2-methylphenyl]-N-methylimidazo[1,5-a]pyridine-1-carboxamide] | – | 6.30 to 7.30
CNC(=O)c1ncn2cc(-c3c(F)ccc(NS(=O)(=O)c4cc(Cl)cnc4OC(C)C)c3F)ncc12 [Compound 168, 6-[3-(5-chloro-2-isopropoxypyridine-3-sulfonamido)-2,6-difluorophenyl]-N-methylimidazo[1,5-a]pyrazine-1-carboxamide] | – | 6.30 to 7.30
Cc1ncc(Cl)cc1S(=O)(=O)Nc1ccc(F)c(-c2ccc3c(-c4ncc[nH]4)ncn3c2F)c1F [Compound 109, 5-chloro-N-[2,4-difluoro-3-[5-fluoro-1-(1H-imidazol-2-yl)imidazo[1,5-a]pyridine-6-yl]phenyl]-2-methylpyridine-3-sulfonamide] | > 7.30 | –
CNC(=O)c1ncn2nc(-c3c(F)ccc(NS(=O)(=O)c4cc(Cl)cnc4C)c3Cl)ccc12 [Compound 139, 2-[2-chloro-3-(5-chloro-2-methylpyridine-3-sulfonamido)-6-fluorophenyl]-N-methylimidazo[1,5-b]pyridazine-5-carboxamide] | > 7.30 | –
CNC(=O)c1ncn2cc(-c3c(Cl)ccc(NS(=O)(=O)c4cc(Cl)cnc4OC)c3F)ccc12 [Compound 137, 6-[6-chloro-3-(5-chloro-2-methoxypyridine-3-sulfonamido)-2-fluorophenyl]-N-methylimidazo[1,5-a]pyridine-1-carboxamide] | > 7.30 | –
COc1ncc(Cl)cc1S(=O)(=O)Nc1ccc(F)c(-c2ccc3c(-c4nnc(C5CC5)[nH]4)ncn3c2)c1F [Compound 87, 5-chloro-N-[3-[1-(5-cyclopropyl-4H-1,2,4-triazol-3-yl)imidazo[1,5-a]pyridin-6-yl]-2,4-difluorophenyl]-2-methoxypyridine-3-sulfonamide] | > 7.30 | –
COc1ncc(F)cc1S(=O)(=O)Nc1ccc(F)c([C@H]2CCc3c(-c4ncc[nH]4)ncn3C2)c1F [Compound 81-1, N-[2,4-difluoro-3-[(6R)-1-(1H-imidazol-2-yl)-5H,6H,7H,8H-imidazo[1,5-a]pyridin-6-yl]phenyl]-5-fluoro-2-methoxypyridine-3-sulfonamide] | > 7.30 | –
COc1ncc(Cl)cc1S(=O)(=O)Nc1ccc(F)c([C@@H]2CCn3c(cnc3-c3ncc[nH]3)C2)c1F [Compound 64-1, (R)—N-(3-(3-(1H-imidazol-2-yl)-5,6,7,8-tetrahydroimidazo[1,5-a]pyridin-7-yl)-2,4-difluorophenyl)-5-chloro-2-methoxypyridine-3-sulfonamide] | > 7.30 | –
COc1ncc(F)cc1S(=O)(=O)Nc1ccc(F)c(-c2ccc3c(-c4ncc[nH]4)ncn3n2)c1F [Compound 98, N-[2,4-difluoro-3-[5-(1H-imidazol-2-yl)imidazo[1,5-b]pyridazin-2-yl]phenyl]-5-fluoro-2-methoxypyridine-3-sulfonamide] | > 7.30 | –
Cc1ncc(Cl)cc1S(=O)(=O)Nc1ccc(F)c(-c2ccc3c(-c4nc(C)c(C)[nH]4)ncn3c2)c1F [Compound 146, 5-chloro-N-(3-(1-(4,5-dimethyl-1H-imidazol-2-yl)imidazo[1,5-a]pyridin-6-yl)-2,4-difluorophenyl)-2-methylpyridine-3-sulfonamide] | > 7.30 | –
COc1ncc(Cl)cc1S(=O)(=O)Nc1ccc(F)c(-c2ccc3c(-c4nc(C)c(C)[nH]4)ncn3c2)c1F [Compound 143, 5-chloro-N-(3-(1-(4,5-dimethyl-1H-imidazol-2-yl)imidazo[1,5-a]pyridin-6-yl)-2,4-difluorophenyl)-2-methoxypyridine-3-sulfonamide] | > 7.30 | –
COc1ncc(Cl)cc1S(=O)(=O)Nc1ccc(F)c(-c2ccc3c(-c4nnc(C(C)C)[nH]4)ncn3c2)c1F [Compound 88, 5-chloro-N-[2,4-difluoro-3-[1-(5-isopropyl-4H-1,2,4-triazol-3-yl)imidazo[1,5-a]pyridin-6-yl]phenyl]-2-methoxypyridine-3-sulfonamide] | > 7.30 | –
CNC(=O)c1ncn2cc(-c3c(F)ccc(NS(=O)(=O)c4cc(C(F)(F)F)cnc4OC)c3F)ccc12 [Compound 13, 6-[2,6-difluoro-3-[2-methoxy-5-(trifluoromethyl)pyridine-3-sulfonamido]phenyl]-N-methylimidazo[1,5-a]pyridine-1-carboxamide] | > 7.30 | –
COc1ncc(Cl)cc1S(=O)(=O)Nc1ccc(F)c(-c2ccc3c(-c4ncc[nH]4)ncn3c2)c1Cl [Compound 103, 5-chloro-N-[2-chloro-4-fluoro-3-[1-(1H-imidazol-2-yl)imidazo[1,5-a]pyridin-6-yl]phenyl]-2-methoxypyridine-3-sulfonamide] | > 7.30 | –
Cc1nnc(-c2ncn3cc(-c4c(F)ccc(NS(=O)(=O)c5cc(F)cnc5C)c4F)ccc23)[nH]1 [Compound 60, N-[2,4-difluoro-3-[1-(5-methyl-4H-1,2,4-triazol-3-yl)imidazo[1,5-a]pyridin-6-yl]phenyl]-5-fluoro-2-methylpyridine-3-sulfonamide] | > 7.30 | –
COc1ncc(Cl)cc1S(=O)(=O)Nc1ccc(F)c(-c2cn3cnc(C(=O)NC(C)C)c3cn2)c1F [Compound 157, 6-[3-(5-chloro-2-methoxypyridine-3-sulfonamido)-2,6-difluorophenyl]-N-isopropylimidazo[1,5-a]pyrazine-1-carboxamide] | > 7.30 | –
COc1ncc(Cl)cc1S(=O)(=O)Nc1ccc(F)c(-c2ccc3c(-c4ncc[nH]4)ncn3c2F)c1F [Compound 104, 5-chloro-N-[2,4-difluoro-3-[5-fluoro-1-(1H-imidazol-2-yl)imidazo[1,5-a]pyridin-6-yl]phenyl]-2-methoxypyridine-3-sulfonamide] | > 7.30 | –
CNC(=O)c1ncc2c(F)c(-c3c(F)ccc(NS(=O)(=O)c4cc(Cl)cnc4OC)c3F)ccn12 [Compound 21, 7-[3-(5-chloro-2-methoxypyridine-3-sulfonamido)-2,6-difluorophenyl]-8-fluoro-N-methylimidazo[1,5-a]pyridine-3-carboxamide] | > 7.30 | –
